“And” between values parts separate entries of the source, which are not always exact repeats. Identical values can stand only once. Inconclusive results and toxic doses are left out. How the source made its calls: active means survival T/C of 150% or more; inactive means T/C below 125% in these data.
Tested on: CD2F1 mice, L1210 leukemia ip, survival T/C
Assay: NCI In Vivo Anticancer Drug Screen. Data for tumor model L1210 Leukemia (intraperitoneal) in CD2F1 (CDF1) mice
Settings: higher = longer survival
How it was run: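 Implant tumor; dose compound or vehicle; measure endpoint in both groups; report treated divided by control.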

Measured: T/C

O=C(O)CCCc1ccc(N(CCCl)CCCl)cc1
inactive: endpoint: mean survival time, dose: 0.5 mg/kg/injection, schedule: Q01DX009 (ip), vehicle: Klucel (hydroxypropylcellulose) (HPC) 103 % of control and 108 % of control | endpoint: mean survival time, dose: 1.0 mg/kg/injection, schedule: Q01DX009 (ip), vehicle: Klucel (hydroxypropylcellulose) (HPC) 94 % of control and 100 % of control and 106 % of control | endpoint: mean survival time, dose: 1.0 mg/kg/injection, schedule: Q03HX024 (ip), vehicle: other 102 % of control | endpoint: mean survival time, dose: 1.56 mg/kg/injection, schedule: Q01DX009 (ip), vehicle: saline 101 % of control and 103 % of control | endpoint: mean survival time, dose: 2.0 mg/kg/injection, schedule: Q01DX009 (ip), vehicle: Klucel (hydroxypropylcellulose) (HPC) 97 % of control and 100 % of control and 103 % of control | endpoint: mean survival time, dose: 2.0 mg/kg/injection, schedule: Q01DX009 (ip), vehicle: saline with Tween-80 106 % of control | endpoint: mean survival time, dose: 2.0 mg/kg/injection, schedule: Q01DX009 (oral), vehicle: other 102 % of control | endpoint: mean survival time, dose: 2.0 mg/kg/injection, schedule: Q03HX008 (ip), vehicle: other 101 % of control | endpoint: mean survival time, dose: 2.0 mg/kg/injection, schedule: Q03HX016 (ip), vehicle: other 103 % of control | endpoint: mean survival time, dose: 2.0 mg/kg/injection, schedule: Q03HX024 (ip), vehicle: other 105 % of control | endpoint: mean survival time, dose: 3.13 mg/kg/injection, schedule: Q01DX009 (ip), vehicle: saline 119 % of control and 110 % of control | endpoint: mean survival time, dose: 3.75 mg/kg/injection, schedule: Q01DX009 (ip), vehicle: Klucel (hydroxypropylcellulose) (HPC) 102 % of control | endpoint: mean survival time, dose: 4.0 mg/kg/injection, schedule: Q01DX001 (ip), vehicle: saline with Tween-80 91 % of control | endpoint: mean survival time, dose: 4.0 mg/kg/injection, schedule: Q01DX001 (oral), vehicle: other 95 % of control | endpoint: mean survival time, dose: 4.0 mg/kg/injection, schedule: Q01DX009 (ip), vehicle: Klucel (hydroxypropylcellulose) (HPC) 116 % of control and 101 % of control and 111 % of control | endpoint: mean survival time, dose: 4.0 mg/kg/injection, schedule: Q01DX009 (ip), vehicle: other 114 % of control | endpoint: mean survival time, dose: 4.0 mg/kg/injection, schedule: Q01DX009 (ip), vehicle: saline with Tween-80 117 % of control and 103 % of control | endpoint: mean survival time, dose: 4.0 mg/kg/injection, schedule: Q01DX009 (oral), vehicle: other 96 % of control | endpoint: mean survival time, dose: 4.0 mg/kg/injection, schedule: Q01DX009 (sc), vehicle: other 102 % of control | endpoint: mean survival time, dose: 4.0 mg/kg/injection, schedule: Q03HX008 (ip), vehicle: other 102 % of control | endpoint: mean survival time, dose: 4.0 mg/kg/injection, schedule: Q03HX016 (ip), vehicle: other 110 % of control | endpoint: mean survival time, dose: 4.0 mg/kg/injection, schedule: Q03HX024 (ip), vehicle: other 111 % of control | endpoint: mean survival time, dose: 4.0 mg/kg/injection, schedule: Q04DX003 (ip), vehicle: saline with Tween-80 102 % of control | endpoint: mean survival time, dose: 4.0 mg/kg/injection, schedule: Q04DX003 (oral), vehicle: other 107 % of control | endpoint: mean survival time, dose: 6.25 mg/kg/injection, schedule: Q01DX009 (ip), vehicle: saline 106 % of control and 110 % of control | endpoint: mean survival time, dose: 7.5 mg/kg/injection, schedule: Q01DX007 (ip), vehicle: saline 108 % of control | endpoint: mean survival time, dose: 7.5 mg/kg/injection, schedule: Q01DX009 (ip), vehicle: saline 114 % of control | endpoint: mean survival time, dose: 7.5 mg/kg/injection, schedule: Q03DX003 (ip), vehicle: saline 104 % of control | endpoint: mean survival time, dose: 7.5 mg/kg/injection, schedule: Q04DX003 (ip), vehicle: saline 102 % of control | endpoint: mean survival time, dose: 8.0 mg/kg/injection, schedule: Q01DX001 (ip), vehicle: saline with Tween-80 96 % of control | endpoint: mean survival time, dose: 8.0 mg/kg/injection, schedule: Q01DX001 (oral), vehicle: other 96 % of control | endpoint: mean survival time, dose: 8.0 mg/kg/injection, schedule: Q01DX009 (ip), vehicle: Klucel (hydroxypropylcellulose) (HPC) 113 % of control and 117 % of control and 105 % of control | endpoint: mean survival time, dose: 8.0 mg/kg/injection, schedule: Q01DX009 (ip), vehicle: other 120 % of control | endpoint: mean survival time, dose: 8.0 mg/kg/injection, schedule: Q01DX009 (ip), vehicle: saline with Tween-80 117 % of control and 101 % of control | endpoint: mean survival time, dose: 8.0 mg/kg/injection, schedule: Q01DX009 (oral), vehicle: other 106 % of control | endpoint: mean survival time, dose: 8.0 mg/kg/injection, schedule: Q01DX009 (sc), vehicle: other 111 % of control | endpoint: mean survival time, dose: 8.0 mg/kg/injection, schedule: Q03HX008 (ip), vehicle: other 119 % of control | endpoint: mean survival time, dose: 8.0 mg/kg/injection, schedule: Q03HX016 (ip), vehicle: other 118 % of control | endpoint: mean survival time, dose: 8.0 mg/kg/injection, schedule: Q04DX003 (ip), vehicle: other 118 % of control | endpoint: mean survival time, dose: 8.0 mg/kg/injection, schedule: Q04DX003 (ip), vehicle: saline with Tween-80 109 % of control | endpoint: mean survival time, dose: 8.0 mg/kg/injection, schedule: Q04DX003 (oral), vehicle: other 96 % of control | endpoint: mean survival time, dose: 10.0 mg/kg/injection, schedule: Q01DX009 (ip), vehicle: saline with Tween-80 118 % of control | endpoint: mean survival time, dose: 12.5 mg/kg/injection, schedule: Q01DX009 (ip), vehicle: saline 119 % of control | endpoint: mean survival time, dose: 15.0 mg/kg/injection, schedule: Q01DX007 (ip), vehicle: saline 122 % of control | endpoint: mean survival time, dose: 15.0 mg/kg/injection, schedule: Q01DX009 (ip), vehicle: Klucel (hydroxypropylcellulose) (HPC) 108 % of control | endpoint: mean survival time, dose: 15.0 mg/kg/injection, schedule: Q01DX009 (ip), vehicle: saline with Tween-80 120 % of control | endpoint: mean survival time, dose: 15.0 mg/kg/injection, schedule: Q01DX009 (ip), vehicle: saline 120 % of control | endpoint: mean survival time, dose: 15.0 mg/kg/injection, schedule: Q03DX003 (ip), vehicle: saline 117 % of control | endpoint: mean survival time, dose: 15.0 mg/kg/injection, schedule: Q04DX003 (ip), vehicle: saline 111 % of control | endpoint: mean survival time, dose: 16.0 mg/kg/injection, schedule: Q01DX001 (ip), vehicle: other 102 % of control | endpoint: mean survival time, dose: 16.0 mg/kg/injection, schedule: Q01DX001 (ip), vehicle: saline with Tween-80 107 % of control | endpoint: mean survival time, dose: 16.0 mg/kg/injection, schedule: Q01DX001 (oral), vehicle: other 93 % of control | endpoint: mean survival time, dose: 16.0 mg/kg/injection, schedule: Q01DX001 (sc), vehicle: other 104 % of control | endpoint: mean survival time, dose: 16.0 mg/kg/injection, schedule: Q01DX009 (ip), vehicle: Klucel (hydroxypropylcellulose) (HPC) 114 % of control and 97 % of control | endpoint: mean survival time, dose: 16.0 mg/kg/injection, schedule: Q01DX009 (ip), vehicle: saline with Tween-80 118 % of control and 97 % of control | endpoint: mean survival time, dose: 16.0 mg/kg/injection, schedule: Q01DX009 (oral), vehicle: other 120 % of control | endpoint: mean survival time, dose: 16.0 mg/kg/injection, schedule: Q01DX009 (sc), vehicle: other 120 % of control | endpoint: mean survival time, dose: 16.0 mg/kg/injection, schedule: Q04DX003 (ip), vehicle: other 115 % of control | endpoint: mean survival time, dose: 16.0 mg/kg/injection, schedule: Q04DX003 (ip), vehicle: saline with Tween-80 120 % of control | endpoint: mean survival time, dose: 16.0 mg/kg/injection, schedule: Q04DX003 (oral), vehicle: other 103 % of control | endpoint: mean survival time, dose: 16.0 mg/kg/injection, schedule: Q08DX002 (ip), vehicle: other 101 % of control | endpoint: mean survival time, dose: 30.0 mg/kg/injection, schedule: Q01DX007 (ip), vehicle: saline with Tween-80 90 % of control | endpoint: mean survival time, dose: 30.0 mg/kg/injection, schedule: Q01DX009 (ip), vehicle: Klucel (hydroxypropylcellulose) (HPC) 110 % of control | endpoint: mean survival time, dose: 30.0 mg/kg/injection, schedule: Q01DX009 (ip), vehicle: saline 124 % of control | endpoint: mean survival time, dose: 30.0 mg/kg/injection, schedule: Q04DX003 (ip), vehicle: saline 114 % of control | endpoint: mean survival time, dose: 32.0 mg/kg/injection, schedule: Q01DX001 (ip), vehicle: other 108 % of control | endpoint: mean survival time, dose: 32.0 mg/kg/injection, schedule: Q01DX001 (ip), vehicle: saline with Tween-80 117 % of control and 109 % of control | endpoint: mean survival time, dose: 32.0 mg/kg/injection, schedule: Q01DX001 (oral), vehicle: other 96 % of control | endpoint: mean survival time, dose: 32.0 mg/kg/injection, schedule: Q01DX001 (sc), vehicle: other 108 % of control | endpoint: mean survival time, dose: 32.0 mg/kg/injection, schedule: Q01DX009 (oral), vehicle: other 102 % of control | endpoint: mean survival time, dose: 32.0 mg/kg/injection, schedule: Q04DX003 (ip), vehicle: other 120 % of control | endpoint: mean survival time, dose: 32.0 mg/kg/injection, schedule: Q04DX003 (oral), vehicle: other 103 % of control | endpoint: mean survival time, dose: 32.0 mg/kg/injection, schedule: Q08DX002 (ip), vehicle: other 108 % of control | endpoint: mean survival time, dose: 64.0 mg/kg/injection, schedule: Q01DX001 (ip), vehicle: other 118 % of control | endpoint: mean survival time, dose: 64.0 mg/kg/injection, schedule: Q01DX001 (oral), vehicle: other 102 % of control | endpoint: mean survival time, dose: 64.0 mg/kg/injection, schedule: Q01DX001 (sc), vehicle: other 114 % of control | endpoint: mean survival time, dose: 64.0 mg/kg/injection, schedule: Q04DX003 (oral), vehicle: other 93 % of control | endpoint: mean survival time, dose: 64.0 mg/kg/injection, schedule: Q08DX002 (ip), vehicle: other 112 % of control | endpoint: median survival time, dose: 3.13 mg/kg/injection, schedule: Q01DX009 (ip), vehicle: saline 114 % of control and 105 % of control | endpoint: median survival time, dose: 6.25 mg/kg/injection, schedule: Q01DX009 (ip), vehicle: saline 114 % of control and 105 % of control | endpoint: median survival time, dose: 12.5 mg/kg/injection, schedule: Q01DX009 (ip), vehicle: saline 117 % of control

From PubChem BioAssay AID256 (DTP/NCI, 2004)
